Test systems include RXF 393 renal; A498 renal; MCF7 breast; SN12C renal; SK-MEL-2 melanoma; CCRF-CEM leukemia; HCT-15 colon; SNB-19 CNS; UO-31 renal; SK-OV-3 ovarian.
Common to all, as to test: NCI-60 cell line screen, 48 h

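Cells were grown in 96-well plates and exposed to each compound for 48 hours at five concentrations; endpoints were interpolated linearly between bracketing concentrations, or set to the highest concentration if not reached. GI50: concentration for 50% inhibition of growth. TGI denotes the concentration required for complete inhibition of growth.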

As for `C=C1C(=O)O[C@H]2[C@H]1CC/C(COC(=O)c1cccc3ccccc13)=C\CC[C@@]1(C)O[C@@H]21`, the GI50 in the test with RXF 393 renal was 1.05 µM; in the test on A498 renal it was 14.5 µM; in the test with MCF7 breast it was 0.722 µM; in the test on SN12C renal it was 1.73 µM; in the test on SK-MEL-2 melanoma, 1.63 µM; with CCRF-CEM leukemia it was 0.327 µM. The GI50 in the test with HCT-15 colon is 1.19 µM; in the test with SNB-19 CNS, 1.57 µM; in the test with UO-31 renal, 1.44 µM; with SK-OV-3 ovarian, 11.6 µM. Further, the TGI in the test with RXF 393 renal turned out to be 2.32 µM; with A498 renal it was 28.4 µM; with MCF7 breast, 2.84 µM; in the test with SN12C renal, 3.67 µM; in the test on SK-MEL-2 melanoma it was 3.38 µM; with CCRF-CEM leukemia it was 12.4 µM. Also, the TGI with HCT-15 colon came out at 2.89 µM; in the test on SNB-19 CNS, 3.19 µM; in the test on UO-31 renal, 2.76 µM; in the test on SK-OV-3 ovarian, 23.7 µM.
For the compound `O=c1[nH]cc(CO)c(=O)[nH]1`, the GI50 with RXF 393 renal, in the test on A498 renal, in the test on MCF7 breast, in the test on SN12C renal, in the test on SK-MEL-2 melanoma and in the test on CCRF-CEM leukemia was over 100 µM each time. In addition, the GI50 in the test with HCT-15 colon, in the test with SNB-19 CNS, with UO-31 renal and in the test on SK-OV-3 ovarian was over 100 µM in each case. In addition, the TGI in the test with RXF 393 renal, in the test with A498 renal, in the test with MCF7 breast, in the test on SN12C renal, with SK-MEL-2 melanoma and with CCRF-CEM leukemia was over 100 µM each time. Besides, the TGI in the test with HCT-15 colon, with SNB-19 CNS, in the test on UO-31 renal and with SK-OV-3 ovarian was over 100 µM throughout.
Turning to `COc1ccc(C2=NNC(c3cc(Cc4ccc(O)c(C5CC(c6ccc(OC)cc6)=NN5)c4)ccc3O)C2)cc1` (stereo not given), the GI50 in the test with RXF 393 renal is 4.18 µM; in the test on A498 renal it was 71.9 µM; in the test on MCF7 breast it was 3.3 µM; with SN12C renal, 8.84 µM; in the test on SK-MEL-2 melanoma it was 5.9 µM; in the test with CCRF-CEM leukemia, 3.85 µM. For the same compound, the GI50 was 3.64 µM with HCT-15 colon, 6.89 µM in the test on SNB-19 CNS, 4.29 µM with UO-31 renal and 31.6 µM with SK-OV-3 ovarian. The TGI with RXF 393 renal is 48.3 µM; with A498 renal, over 100 µM; in the test with MCF7 breast, 15 µM; in the test with SN12C renal, over 100 µM; in the test with SK-MEL-2 melanoma, 29 µM; in the test on CCRF-CEM leukemia, over 100 µM. The TGI in the test on HCT-15 colon, in the test on SNB-19 CNS, in the test with UO-31 renal and in the test with SK-OV-3 ovarian was over 100 µM in each case.
For `NS(=O)(=O)c1cccc(-c2cc3ccncc3cc2OCc2ccccc2)c1`, the GI50 in the test on RXF 393 renal is 4.96 µM; with A498 renal, 2.17 µM; in the test on MCF7 breast it was 10.5 µM; in the test on SN12C renal it was 14.5 µM; with SK-MEL-2 melanoma, 7.43 µM; in the test on CCRF-CEM leukemia, 8.43 µM. For the same compound, the GI50 with HCT-15 colon is 7.67 µM; in the test with SNB-19 CNS, 19.1 µM; in the test on UO-31 renal it was 5.76 µM; with SK-OV-3 ovarian, over 18.5 µM. Further, the TGI with RXF 393 renal was over 21.8 µM; in the test on A498 renal it was 13 µM; in the test on MCF7 breast it was over 25 µM; in the test on SN12C renal, over 25 µM; in the test on SK-MEL-2 melanoma, over 19.6 µM; with CCRF-CEM leukemia it was over 25 µM. For the same compound, the TGI is over 25 µM in the test with HCT-15 colon, over 25 µM in the test with SNB-19 CNS, over 21.4 µM with UO-31 renal and over 25 µM in the test on SK-OV-3 ovarian.
For the compound `COc1ccc(Oc2nc(Nc3ccc(N4CCOCC4)cc3)ncc2NC(=O)Nc2cc(OC)cc(OC)c2)cc1`, the GI50 in the test with RXF 393 renal is 1.54 µM; in the test with A498 renal, 4.75 µM; in the test on MCF7 breast it was 4.97 µM; in the test on SN12C renal, 1.17 µM; in the test with SK-MEL-2 melanoma, 4.11 µM; in the test with CCRF-CEM leukemia, over 33.3 µM. Further, the GI50 with HCT-15 colon was 15.4 µM; with SNB-19 CNS, 4.66 µM; with UO-31 renal, 5.33 µM; with SK-OV-3 ovarian it was 7.86 µM. Also, the TGI in the test on RXF 393 renal was 5.8 µM; in the test on A498 renal it was 15 µM; in the test with MCF7 breast, over 33.3 µM; in the test with SN12C renal, 4.5 µM; in the test on SK-MEL-2 melanoma, 15.9 µM; in the test on CCRF-CEM leukemia it was over 33.3 µM. The TGI with HCT-15 colon was over 33.3 µM; in the test with SNB-19 CNS, 28.8 µM; in the test with UO-31 renal, 24.8 µM; in the test with SK-OV-3 ovarian, 25.6 µM.
For `O=S1CCN(Cc2ccc(-c3ccc4ncnc(Nc5ccc(OCc6ccccc6)c(F)c5)c4c3)o2)CC1`, the GI50 in the test on RXF 393 renal is 4.45 µM; in the test with A498 renal, 3.68 µM; with MCF7 breast, 6.89 µM; with SN12C renal, 8.07 µM; in the test with SK-MEL-2 melanoma, 5.46 µM; in the test with CCRF-CEM leukemia, 8.82 µM. In addition, the GI50 with HCT-15 colon is 8.13 µM; with SNB-19 CNS it was 23.4 µM; in the test on UO-31 renal it was 4.85 µM; in the test with SK-OV-3 ovarian, 0.0713 µM. Also, the TGI was 13.2 µM in the test on RXF 393 renal; 21.6 µM in the test with A498 renal; over 16.5 µM in the test on MCF7 breast; over 25 µM with SN12C renal; 12.2 µM in the test on SK-MEL-2 melanoma; over 25 µM in the test on CCRF-CEM leukemia. For the same compound, the TGI in the test with HCT-15 colon was over 25 µM; in the test with SNB-19 CNS, over 25 µM; in the test on UO-31 renal it was over 25 µM; with SK-OV-3 ovarian, 0.226 µM.
For the compound `CC(=O)Nc1c(I)c(C(=O)O)c(I)c(N(C)C(C)=O)c1I`, the GI50 in the test with RXF 393 renal, in the test on A498 renal, with MCF7 breast, in the test on SN12C renal, in the test on SK-MEL-2 melanoma and in the test on CCRF-CEM leukemia was over 100 µM each time. Besides, the GI50 in the test on HCT-15 colon, in the test with SNB-19 CNS, in the test on UO-31 renal and with SK-OV-3 ovarian was over 100 µM in each case. Further, the TGI in the test on RXF 393 renal, with A498 renal, with MCF7 breast, in the test with SN12C renal, in the test with SK-MEL-2 melanoma and with CCRF-CEM leukemia was over 100 µM in each case. The TGI in the test with HCT-15 colon, in the test on SNB-19 CNS, in the test with UO-31 renal and in the test on SK-OV-3 ovarian was over 100 µM throughout.
`COc1cc(-c2ccc(Nc3ccccc3C(=O)O)c(OC)c2)ccc1Nc1ccccc1C(=O)O`: the TGI is 83.3 µM with RXF 393 renal; over 96.5 µM in the test on A498 renal; over 100 µM in the test on MCF7 breast; over 73.6 µM in the test with SN12C renal; 58.6 µM in the test on SK-MEL-2 melanoma; 86.1 µM in the test with CCRF-CEM leukemia. Moreover, the TGI in the test with HCT-15 colon was 51.6 µM; in the test on SNB-19 CNS, over 100 µM; in the test with UO-31 renal, over 58.9 µM; in the test on SK-OV-3 ovarian it was over 100 µM.

(Values after PubChem BioAssay (NCI).)
